Legend:
velvetleaf = assay: Test B preemergence/postemergence greenhouse plant response rating 0 to 10; type: in vivo, Abutilon theophrasti; settings: 0 to 10 scale
Outline: (§1)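 Postemergence treatment of plants two to eighteen cm tall ran alongside preemergence treatment of planted seed, each using compound in a non-phytotoxic solvent.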

wild buckwheat = assay: as above; type: in vivo, Polygonum convolvulus; settings: 0 to 10 scale
Outline: as §1

chickweed [1] = assay: as above; type: in vivo, Stellaria media; settings: for Plant response rating, Chickweed: 0 to 10 scale
Outline: as §1

barley [2] = assay: as above; type: in vivo, Hordeum vulgare; settings: for Plant response rating, Barley: 0 to 10 scale
Outline: as §1

sugar beet = assay: as above; type: in vivo, Beta vulgaris; settings: 0 to 10 scale
Outline: as §1

cocklebur = assay: as above; type: in vivo, Xanthium pensylvanicum; settings: for Plant response rating, Cocklebur: 0 to 10 scale
Outline: as §1

sorghum = assay: as above; type: in vivo, Sorghum bicolor; settings: 0 to 10 scale
Outline: as §1

soybean [3] = assay: as above; type: in vivo, Glycine max; settings: 0 to 10 scale
Outline: as §1

bedstraw = assay: as above; type: in vivo, Galium aparine; settings: for Plant response rating, Bedstraw: 0 to 10 scale
Outline: as §1

morningglory = assay: as above; type: in vivo, Ipomoea hederacea; settings: 0 to 10 scale
Outline: as §1

blackgrass = assay: Test C preemergence/postemergence greenhouse plant response rating 0 to 100; type: in vivo, Alopecurus myosuroides; settings: PREEMERGENCE; for Plant response rating, Blackgrass: 0 to 100 scale
Excerpt: (§2) The compounds evaluated in this test were formulated in a non-phytoxic solvent and applied to the soil surface before plant seedlings emerged (preemergence application), to water that covered the soil surface (flood application), and to plants that were in the one-to-four leaf stage (postemergence application). A sandy loam soil was used for the preemergence and postemergence tests, while a silt loam soil was used in the flood test. Water depth was approximately 2.5 cm for the flood test and was maintained at this level for the duration of the test. Plant species in the preemergence and postemergence tests consisted of barley (Hordeum vulgare), bedstraw (Galium aparine), blackgrass (Alopecurus myosuroides), chickweed (Stellaria media), corn (Zea mays), cotton (Gossypium hirsutum), crabgrass (Digitaria sanguinalis), downy brome (Bromus tectorum), giant foxtail (Setaria faberii), lambsquarters (Chenopodium album), morningglory (Ipomoea hederacea), pigweed ([…]), rape (Brassica napus), ryegrass (Lolium multiflorum), sorghum (Sorghum bicolor), soybean (Glycine max), speedwell (Veronica persica), sugar beet (Beta vulgaris), velvetleaf (Abutilon theophrasti), wheat (Triticum aestivum), wild buckwheat (Polygonum convolvulus), and wild oat (Avena fatua). All plant species were planted one day before application of the compound for the preemergence portion-of this test. Plantings of these species were adjusted to produce plants of appropriate size for the post-emergence portion of the test. […] All plant species were grown using normal greenhouse practices. Visual evaluations of injury expressed on treated plants, when compared to untreated controls, were recorded approximately fourteen to twenty one days after application of the test compound. […] A dash (-) response means no test result.

rape = assay: as above; type: in vivo, Brassica napus; settings: PREEMERGENCE; for Plant response rating, Rape: 0 to 100 scale
Excerpt: as §2

ryegrass = assay: as above; type: in vivo, Lolium multiflorum; settings: PREEMERGENCE; for Plant response rating Ryegrass: 0 to 100 scale
Excerpt: as §2

barley [4] = assay: as above; type: in vivo, Hordeum vulgare; settings: PREEMERGENCE; for Plant response rating Barley Igri: 0 to 100 scale
Excerpt: as §2

chickweed [5] = assay: as above; type: in vivo, Stellaria media; settings: PREEMERGENCE; for Plant response rating, Chickweed: 0 to 100 scale
Excerpt: as §2

pigweed = assay: as above; type: in vivo, Amaranthusretroflexus; settings: PREEMERGENCE; for Plant response rating Pigweed: 0 to 100 scale
Excerpt: as §2

soybean [6] = assay: as above; type: in vivo, Glycine max; settings: PREEMERGENCE
Excerpt: as §2

`CC(C)Oc1cc(-c2nn3c(c2Cl)CCCC3)c(F)cc1Cl` [Compound 21] was tested, and the “Plant response rating, Velvetleaf” value (velvetleaf; POSTEMERGENCE, Rate 50 g/ha) was 10, the “Plant response rating, Velvetleaf” value (velvetleaf; POSTEMERGENCE, Rate 200 g/ha) was 9 and the “Plant response rating, Velvetleaf” value (velvetleaf; PREEMERGENCE, Rate 50 g/ha) was 1. For the same compound, the “Plant response rating, Velvetleaf” value (velvetleaf; Rate 200 g/ha, PREEMERGENCE) was 10, the “Plant response rating, Wild buckwheat” value (wild buckwheat; POSTEMERGENCE, Rate 50 g/ha) was 10 and the “Plant response rating, Wild buckwheat” value (wild buckwheat; POSTEMERGENCE, Rate 200 g/ha) was 10. The “Plant response rating, Wild buckwheat” value (wild buckwheat; PREEMERGENCE, Rate 50 g/ha) was 7, the “Plant response rating, Wild buckwheat” value (wild buckwheat; Rate 200 g/ha, PREEMERGENCE) was 9 and the “Plant response rating (0 to 10 scale), Chickweed” value (chickweed [1]; POSTEMERGENCE, Rate 50 g/ha) was 8. The “Plant response rating, Chickweed” value (chickweed [1]; POSTEMERGENCE, Rate 200 g/ha) was 7, the “Plant response rating, Chickweed” value (chickweed [1]; PREEMERGENCE, Rate 50 g/ha) was 2 and the “Plant response rating, Chickweed” value (chickweed [1]; Rate 200 g/ha, PREEMERGENCE) was 7. The “Plant response rating (0 to 10 scale), Barley” value (barley [2]; POSTEMERGENCE, Rate 50 g/ha) was 6, the “Plant response rating, Barley” value (barley [2]; POSTEMERGENCE, Rate 200 g/ha) was 4 and the “Plant response rating, Barley” value (barley [2]; PREEMERGENCE, Rate 50 g/ha) was 0. For the same compound, the “Plant response rating, Barley” value (barley [2]; Rate 200 g/ha, PREEMERGENCE) was 2, the “Plant response rating, Sugar beet” value (sugar beet; POSTEMERGENCE, Rate 50 g/ha) was 10 and the “Plant response rating, Sugar beet” value (sugar beet; POSTEMERGENCE, Rate 200 g/ha) was 10. The “Plant response rating, Sugar beet” value (sugar beet; PREEMERGENCE, Rate 50 g/ha) was 10, the “Plant response rating, Sugar beet” value (sugar beet; Rate 200 g/ha, PREEMERGENCE) was 9 and the “Plant response rating (0 to 10 scale), Cocklebur” value (cocklebur; POSTEMERGENCE, Rate 50 g/ha) was 8. The “Plant response rating, Cocklebur” value (cocklebur; POSTEMERGENCE, Rate 200 g/ha) was 10, the “Plant response rating, Cocklebur” value (cocklebur; PREEMERGENCE, Rate 50 g/ha) was 2 and the “Plant response rating, Cocklebur” value (cocklebur; Rate 200 g/ha, PREEMERGENCE) was 2. For the same compound, the “Plant response rating, Sorghum” value (sorghum; POSTEMERGENCE, Rate 50 g/ha) was 5, the “Plant response rating, Sorghum” value (sorghum; POSTEMERGENCE, Rate 200 g/ha) was 6 and the “Plant response rating, Sorghum” value (sorghum; PREEMERGENCE, Rate 50 g/ha) was 0. For the same compound, the “Plant response rating, Sorghum” value (sorghum; Rate 200 g/ha, PREEMERGENCE) was 2, the “Plant response rating, Soybean” value (soybean [3]; POSTEMERGENCE, Rate 50 g/ha) was 9 and the “Plant response rating, Soybean” value (soybean [3]; POSTEMERGENCE, Rate 200 g/ha) was 9. For the same compound, the “Plant response rating, Soybean” value (soybean [3]; PREEMERGENCE, Rate 50 g/ha) was 0, the “Plant response rating, Soybean” value (soybean [3]; Rate 200 g/ha, PREEMERGENCE) was 2 and the “Plant response rating (0 to 10 scale), Bedstraw” value (bedstraw; POSTEMERGENCE, Rate 50 g/ha) was 6. For the same compound, the “Plant response rating, Bedstraw” value (bedstraw; POSTEMERGENCE, Rate 200 g/ha) was 9, the “Plant response rating, Bedstraw” value (bedstraw; PREEMERGENCE, Rate 50 g/ha) was 2 and the “Plant response rating, Bedstraw” value (bedstraw; Rate 200 g/ha, PREEMERGENCE) was 9. The “Plant response rating, Morningglory” value (morningglory; POSTEMERGENCE, Rate 50 g/ha) was 10, the “Plant response rating, Morningglory” value (morningglory; POSTEMERGENCE, Rate 200 g/ha) was 9 and the “Plant response rating, Morningglory” value (morningglory; PREEMERGENCE, Rate 50 g/ha) was 2. The “Plant response rating, Morningglory” value (morningglory; Rate 200 g/ha, PREEMERGENCE) was 2.

In the case of `CCCN1C(=O)COc2cc(F)c(-c3nn4c(c3Br)CCCC4)cc21` [Compound 63], the “Plant response rating, Blackgrass” value (blackgrass; 62 g/ha) was 50, the “Plant response rating, Blackgrass” value (blackgrass; 250 g/ha) was 90 and the “Plant response rating (0 to 100), Blackgrass” value (blackgrass; Rate 4 g/ha) was 10. For the same compound, the “Plant response rating (0 to 100), Blackgrass” value (blackgrass; Rate 16 g/ha) was 30, the “Plant response rating, Velvetleaf” value (velvetleaf; POSTEMERGENCE, Rate 10 g/ha) was 8 and the “Plant response rating, Velvetleaf” value (velvetleaf; POSTEMERGENCE, Rate 50 g/ha) was 10. For the same compound, the “Plant response rating, Velvetleaf” value (velvetleaf; PREEMERGENCE, Rate 50 g/ha) was 7, the “Plant response rating, Wild buckwheat” value (wild buckwheat; POSTEMERGENCE, Rate 10 g/ha) was 9 and the “Plant response rating, Wild buckwheat” value (wild buckwheat; POSTEMERGENCE, Rate 50 g/ha) was 10. The “Plant response rating, Wild buckwheat” value (wild buckwheat; PREEMERGENCE, Rate 50 g/ha) was 10, the “Plant response rating, Chickweed” value (chickweed [1]; POSTEMERGENCE, Rate 10 g/ha) was 5 and the “Plant response rating, Chickweed” value (chickweed [1]; POSTEMERGENCE, Rate 50 g/ha) was 9. For the same compound, the “Plant response rating, Chickweed” value (chickweed [1]; PREEMERGENCE, Rate 10 g/ha) was 0, the “Plant response rating, Chickweed” value (chickweed [1]; PREEMERGENCE, Rate 50 g/ha) was 9 and the “Plant response rating, Barley” value (barley [2]; POSTEMERGENCE, Rate 10 g/ha) was 4. The “Plant response rating, Barley” value (barley [2]; POSTEMERGENCE, Rate 50 g/ha) was 5, the “Plant response rating, Barley” value (barley [2]; PREEMERGENCE, Rate 10 g/ha) was 0 and the “Plant response rating, Barley” value (barley [2]; PREEMERGENCE, Rate 50 g/ha) was 0. For the same compound, the “Plant response rating, Rape” value (rape; 62 g/ha) was 85, the “Plant response rating, Rape” value (rape; 250 g/ha) was 100 and the “Plant response rating (0 to 100), Rape” value (rape; Rate 4 g/ha) was 0. For the same compound, the “Plant response rating (0 to 100), Rape” value (rape; Rate 16 g/ha) was 20, the “Plant response rating, Sugar beet” value (sugar beet; POSTEMERGENCE, Rate 10 g/ha) was 10 and the “Plant response rating, Sugar beet” value (sugar beet; POSTEMERGENCE, Rate 50 g/ha) was 10. The “Plant response rating, Sugar beet” value (sugar beet; PREEMERGENCE, Rate 50 g/ha) was 10, the “Plant response rating Ryegrass” value (ryegrass; 62 g/ha) was 40 and the “Plant response rating Ryegrass” value (ryegrass; 250 g/ha) was 80. For the same compound, the “Plant response rating (0 to 100), Ryegrass” value (ryegrass; Rate 4 g/ha) was 0, the “Plant response rating (0 to 100), Ryegrass” value (ryegrass; Rate 16 g/ha) was 0 and the “Plant response rating Barley Igri” value (barley [4]; 62 g/ha) was 10. For the same compound, the “Plant response rating Barley Igri” value (barley [4]; 250 g/ha) was 40, the “Plant response rating (0 to 100), Barley Igri” value (barley [4]; Rate 4 g/ha) was 0 and the “Plant response rating (0 to 100), Barley Igri” value (barley [4]; Rate 16 g/ha) was 0. The “Plant response rating, Cocklebur” value (cocklebur; POSTEMERGENCE, Rate 10 g/ha) was 8, the “Plant response rating, Cocklebur” value (cocklebur; POSTEMERGENCE, Rate 50 g/ha) was 9 and the “Plant response rating, Cocklebur” value (cocklebur; PREEMERGENCE, Rate 10 g/ha) was 0. The “Plant response rating, Cocklebur” value (cocklebur; PREEMERGENCE, Rate 50 g/ha) was 0, the “Plant response rating, Chickweed” value (chickweed [5]; 62 g/ha) was 30 and the “Plant response rating, Chickweed” value (chickweed [5]; 250 g/ha) was 50. The “Plant response rating (0 to 100), Chickweed” value (chickweed [5]; Rate 4 g/ha) was 10, the “Plant response rating (0 to 100), Chickweed” value (chickweed [5]; Rate 16 g/ha) was 20 and the “Plant response rating, Sorghum” value (sorghum; POSTEMERGENCE, Rate 10 g/ha) was 3. For the same compound, the “Plant response rating, Sorghum” value (sorghum; POSTEMERGENCE, Rate 50 g/ha) was 5, the “Plant response rating, Sorghum” value (sorghum; PREEMERGENCE, Rate 50 g/ha) was 0 and the “Plant response rating, Soybean” value (soybean [3]; POSTEMERGENCE, Rate 10 g/ha) was 6. The “Plant response rating, Soybean” value (soybean [3]; POSTEMERGENCE, Rate 50 g/ha) was 5, the “Plant response rating, Soybean” value (soybean [3]; PREEMERGENCE, Rate 50 g/ha) was 0 and the “Plant response rating Pigweed” value (pigweed; 62 g/ha) was 100. The “Plant response rating Pigweed” value (pigweed; 250 g/ha) was 100, the “Plant response rating (0 to 100), Pigweed” value (pigweed; Rate 4 g/ha) was 0 and the “Plant response rating (0 to 100), Pigweed” value (pigweed; Rate 16 g/ha) was 100. The “Plant response rating, Bedstraw” value (bedstraw; POSTEMERGENCE, Rate 10 g/ha) was 6, the “Plant response rating, Bedstraw” value (bedstraw; POSTEMERGENCE, Rate 50 g/ha) was 8 and the “Plant response rating, Bedstraw” value (bedstraw; PREEMERGENCE, Rate 10 g/ha) was 4. The “Plant response rating, Bedstraw” value (bedstraw; PREEMERGENCE, Rate 50 g/ha) was 10, the “Plant response rating, Soybean” value (soybean [6]; 250 g/ha, 0 to 100 scale) was 20 and the “Plant response rating (0 to 100), Soybean” value (soybean [6]; Rate 4 g/ha) was 0. For the same compound, the “Plant response rating (0 to 100), Soybean” value (soybean [6]; Rate 16 g/ha) was 0, the “Plant response rating, Morningglory” value (morningglory; POSTEMERGENCE, Rate 10 g/ha) was 8 and the “Plant response rating, Morningglory” value (morningglory; POSTEMERGENCE, Rate 50 g/ha) was 10. For the same compound, the “Plant response rating, Morningglory” value (morningglory; PREEMERGENCE, Rate 50 g/ha) was 0.

— patent US6358885B1, “Substituted phenylheterocyclic herbicides” (Mississippi State University, priority 1992, dated 2002)
